For series [1], the target named is T1, CYP2D6 (Homo sapiens, UniProt P10635). Particulars: 20 μM substrate; for CL rank order: degree of metabolism by rate of ROS-dependent CL production, reconstituted recombinant CYP2D6, 1 mM NADPH, 37° C.
Description: Stock solutions of NADPH were freshly prepared before each experiment in buffer. Test compounds were prepared as 20 mM stock solutions in DMSO and diluted to 2 mM in acetonitrile. […] Reactions were performed at 37° C. in 500 μL deep 96-well blocks. Reactions were incubated for 3 min prior to adding NADPH. Aliquots of the reaction mixture (10 μL) were removed at 0 (immediately after the addition of NADPH), 5,10, 20 and 30 min and quenched with 20 μL of acetonitrile and placed in 96-well polypropylene plates. ROS formation was quantified using a chemiluminescence reaction as described below.
Series [2] has as its target T1, CYP2D6. Particulars: degree of metabolism by parent compound remaining after 10 min; 5 μM substrate, recombinant CYP2D6 microsomes, 1 mM NADPH, 37° C.
Description: Test compounds were prepared as 20 mM stock solutions in DMSO and diluted to 2 mM in acetonitrile. […] Unless otherwise specified, reaction mixtures consisted of 5 μM substrate, 30 pmol/mL recombinant CYP2D6 microsomes (GenTest™) and 1 mM NADPH prepared in buffer to a final volume of 750 μl. Reactions were performed at 37° C. in 1.2 mL marsh tubes. Reactions were incubated for 3 min prior to adding NADPH. Aliquots of the reaction mixture (100 μL) were removed at 0 (immediately after the addition of NADPH), 5, 10, 20 and 30 min and quenched with 200 μL of acetonitrile (containing 2.5 μM terfenadine). Samples were placed at −20° C. for 1 hr and centrifuged using a Thermo IEC Centra GP8R table top centrifuge (3,000 rpm for 10 min). The supernatant fraction was transferred to 500 μL 96-well blocks for LC-MS analysis.
LC-MS analysis was performed using a HPLC system consisting of a Shimadzu LC-10AD pump and Perkin Elmer Series 200 Autosampler coupled to an Applied Biosystems Sciex API 3000 triple-quadrapole mass spectrometer. Test compounds were separated on an Agilent ZORBAX® Bonus-RP column (30×2.1 mm, 3.5 μm particle size) maintained at 30° C. […] The column was equilibrated with 100% buffer A for 2 min between each run. The HPLC eluant was directly introduced into the mass spectrometer equipped with a Turbo Ionspray interface operated at 4500 V in the positive mode. […] Compounds were detected by single ion monitoring using the following parameters: declustering potential, 35 V; focusing potential, 200 V; exit potential, 10 V.

T1 sequence (P10635 whole entry): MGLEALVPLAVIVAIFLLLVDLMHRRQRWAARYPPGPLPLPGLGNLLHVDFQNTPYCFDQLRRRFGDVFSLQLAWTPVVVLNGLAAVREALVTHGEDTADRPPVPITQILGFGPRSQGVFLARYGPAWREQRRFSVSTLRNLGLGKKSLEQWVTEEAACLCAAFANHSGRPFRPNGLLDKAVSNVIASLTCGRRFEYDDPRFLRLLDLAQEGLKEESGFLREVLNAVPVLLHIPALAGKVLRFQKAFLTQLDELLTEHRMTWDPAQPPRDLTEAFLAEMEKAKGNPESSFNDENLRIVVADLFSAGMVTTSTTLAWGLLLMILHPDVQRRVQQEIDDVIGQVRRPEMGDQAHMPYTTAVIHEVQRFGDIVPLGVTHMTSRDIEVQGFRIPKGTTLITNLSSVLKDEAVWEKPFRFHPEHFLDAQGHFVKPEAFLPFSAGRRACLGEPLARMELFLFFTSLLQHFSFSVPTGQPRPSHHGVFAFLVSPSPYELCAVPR

As for `COc1ccc([C@@H]2Sc3ccccc3N(CCN(C)C)C(=O)[C@@H]2OC(C)=O)cc1` [diltiazem], at CYP2D6 [1], the CL rank order is 1 (low (a rate of CL production equal to or below that observed in the absence of substrate (400 Units/min))). Moreover, the LC-MS rank order on CYP2D6 [2] was 1 (low (more than 75% of parent compound remaining after 10 min)).
The corresponding values for `CCC(C)n1ncn(-c2ccc(N3CCN(c4ccc(OCC5COC(Cn6cncn6)(c6ccc(Cl)cc6Cl)O5)cc4)CC3)cc2)c1=O` (stereo not drawn) [itraconazole] are 1 (low (a rate of CL production equal to or below that observed in the absence of substrate (400 Units/min))) and 1 (low (more than 75% of parent compound remaining after 10 min)).
Consider `COc1ccc2c(c1)[C@]13CCCC[C@@H]1[C@H](C2)N(C)CC3` [dextromethorphan], for which the “increase in the rate of CL production over background (no substrate)” value at CYP2D6 [1] (CYP2D6 reaction, 30 min time course) is reported as “approximately two-fold”. Further, at CYP2D6 [1], the CL rank order was 2 (moderate (a rate of CL production between 400 (background) and 800 CL Units/min)). The LC-MS rank order at CYP2D6 [2] was 2 (moderate (between 20 and 75% of parent compound remaining after 10 min)).
In the case of `C=CCc1ccccc1OCC(O)CNC(C)C` (stereo not drawn) [alprenolol], the CL rank order on CYP2D6 [1] is 3 (high (a rate of CL production above 800 Units/min)). At CYP2D6 [2], the LC-MS rank order is listed as 3 (high (less than 20% of parent compound remaining after 10 min)).
On the same counts, the results for `NC(=O)N1c2ccccc2C=Cc2ccccc21` [carbamazepine] are 1 (low (a rate of CL production equal to or below that observed in the absence of substrate (400 Units/min))) and 1 (low (more than 75% of parent compound remaining after 10 min)).
Consider `COc1ccc(CCN2CCC(Nc3nc4ccccc4n3Cc3ccc(F)cc3)CC2)cc1` [astemizole], for which the CL rank order on CYP2D6 [1] was 2 (moderate (a rate of CL production between 400 (background) and 800 CL Units/min)). The LC-MS rank order at CYP2D6 [2] was 2 (moderate (between 20 and 75% of parent compound remaining after 10 min)).
As to `O=C(CCCN1CCC(O)(c2cccc(C(F)(F)F)c2)CC1)c1ccc(F)cc1` [trifluperidol], the CL rank order at CYP2D6 [1] was 2 (moderate (a rate of CL production between 400 (background) and 800 CL Units/min)). Also, on CYP2D6 [2], the LC-MS rank order is listed as 1 (low (more than 75% of parent compound remaining after 10 min)).

(Values after patent publication US20060046278A1, “Methods and kits for determining metabolic stability of compounds” (Qualyst, Inc., priority 2004, published 2006).)
